Laboratory results from the supplement of paper PMC11061612.

Key:
Assay in all cases: combination Emax (second highest fraction inhibited in the dose matrix, 72 h); higher = more inhibition; extreme values may be limits of the assay
[1] = system: CAL-51 (Breast Carcinoma)
Summary of the method: (§1)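 Bliss excess equals the observed combination effect minus the expected value EA + EB − EA·EB, where EA and EB are the effects of each agent alone. Combination Emax is the second-highest inhibition within the matrix. Inhibition was scaled from CellTiter-Glo 2.0 luminescence, with 0 set by vehicle wells and 1 by blank wells, after 72 hours of two-drug dosing of cells plated in 1536-well plates.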

[2] = system: RT-112 (Bladder Carcinoma)
Summary of the method: as §1

COLO-829 (Melanoma) = system: COLO-829 (Melanoma)
Summary of the method: as §1

[3] = system: LoVo (Colorectal Carcinoma)
Summary of the method: as §1

[4] = system: HO-1-u-1 (Oral Cavity Carcinoma)
Summary of the method: as §1

[5] = system: UMC-11 (Other Solid Carcinomas)
Summary of the method: as §1

[6] = system: SUP-T1 (T-Lymphoblastic Leukemia)
Summary of the method: as §1

[7] = system: TE-4 (Esophageal Squamous Cell Carcinoma)
Summary of the method: as §1

[8] = system: EN (Endometrial Carcinoma)
Summary of the method: as §1

[9] = system: HCC-15 (Squamous Cell Lung Carcinoma)
Summary of the method: as §1

NCI-H28 (Mesothelioma) = system: NCI-H28 (Mesothelioma)
Summary of the method: as §1

[10] = system: SU-DHL-6 (B-Cell Non-Hodgkin's Lymphoma)
Summary of the method: as §1

[11] = system: PCI-30 (Head and Neck Carcinoma)
Summary of the method: as §1

[12] = system: Hs-633T (Other Solid Carcinomas)
Summary of the method: as §1

SH-4 (Melanoma) = system: SH-4 (Melanoma)
Summary of the method: as §1

[13] = system: KYSE-410 (Esophageal Squamous Cell Carcinoma)
Summary of the method: as §1

NCI-H2461 (Mesothelioma) = system: NCI-H2461 (Mesothelioma)
Summary of the method: as §1

NCI-H2795 (Mesothelioma) = system: NCI-H2795 (Mesothelioma)
Summary of the method: as §1

HMV-II (Melanoma) = system: HMV-II (Melanoma)
Summary of the method: as §1

[14] = system: MDA-MB-468 (Breast Carcinoma)
Summary of the method: as §1

Row | Structure (SMILES) | combination Emax [1] | combination Emax [2] | combination Emax (COLO-829 (Melanoma)) | combination Emax [3] | combination Emax [4] | combination Emax [5] | combination Emax [6] | combination Emax [7] | combination Emax [8] | combination Emax [9] | combination Emax (NCI-H28 (Mesothelioma)) | combination Emax [10] | combination Emax [11] | combination Emax [12] | combination Emax (SH-4 (Melanoma)) | combination Emax [13] | combination Emax (NCI-H2461 (Mesothelioma)) | combination Emax (NCI-H2795 (Mesothelioma)) | combination Emax (HMV-II (Melanoma)) | combination Emax [14]
1 | COc1cccc2c1C(=O)c1c(O)c3c(c(O)c1C2=O)C[C@@](O)(C(=O)CO)C[C@@H]3O[C@H]1C[C@H](N)[C@H](O)[C@H](C)O1 [Doxorubicin] + Cc1cc2ncnn2cc1Nc1ncc2c(n1)n(C1CCOCC1)c(=O)n2C [AZD7648] (first compound max 1 µM, 7x7, partner max 10 µM) | 0.936 | 0.9 | 0.73 | 0.688 | 0.832 | 0.613 | 0.784 | 0.443 | 0.735 | 0.284 | 0.605 | 0.989 | 0.721 | 0.932 | 0.588 | 0.117 | 0.867 | 0.709 | 0.907 | 0.638
2 | CN(C)CCCOc1ccc(-c2ccc3ncc4c(c3c2)n(C2CCOCC2)c(=O)n4C)cn1 [AZD0156] + CCN(CCO)CCCOc1ccc2c(Nc3cc(CC(=O)Nc4cccc(F)c4)[nH]n3)ncnc2c1 [AZD2811] (first compound max 1 µM, 7x7, partner max 1 µM) | 0.196 | 0.205 | 0.069 | 0.435 | 0.209 | 0.758 | 0.366 | 0.071 | 0.494 | 0.665 | 0.149 | 0.478 | 0.192 | 0.373 | 0.247 | 0.0555 | 0.195 | 0.291 | 0.164 | 0.363
3 | NC1(C(=O)N[C@@H](CCO)c2ccc(Cl)cc2)CCN(c2ncnc3[nH]ccc23)CC1 [Capivasertib] + CC(C)n1c(=O)n(C)c2cnc3cc(F)c(-c4ccc(OCCCN5CCCCC5)nc4)cc3c21 [AZD1390] (first compound max 10 µM, 7x7, partner max 0.3 µM) | 0.488 | 0.255 | 0.201 | 0.586 | 0.746 | 0.201 | 0.718 | 0.616 | 0.574 | 0.26 | 0.281 | 1 | 0.298 | 0.258 | 0.359 | 0.327 | 0.6 | 0.394 | 0.358 | 0.518
4 | CCN(CCO)CCCOc1ccc2c(Nc3cc(CC(=O)Nc4cccc(F)c4)[nH]n3)ncnc2c1 [AZD2811] + C=CCn1c(=O)c2cnc(Nc3ccc(N4CCN(C)CC4)cc3)nc2n1-c1cccc(C(C)(C)O)n1 [AZD1775] (first compound max 1 µM, partner max 1 µM) | 0.815 | 0.531 | 0.274 | 0.835 | 0.54 | 0.832 | 0.839 | 0.171 | 0.558 | 0.723 | 0.278 | 0.734 | 0.344 | 0.649 | 0.456 | 0.267 | 0.638 | 0.441 | 0.473 | 0.434
5 | NC1(C(=O)N[C@@H](CCO)c2ccc(Cl)cc2)CCN(c2ncnc3[nH]ccc23)CC1 [Capivasertib] + Cn1cnc2c(F)c(Nc3ccc(Br)cc3Cl)c(C(=O)NOCCO)cc21 [Selumetinib] (first compound max 10 µM, 7x7, partner max 10 µM) | 0.596 | 0.475 | 0.818 | 0.717 | 0.878 | 0.279 | 0.682 | 0.961 | 0.646 | 0.693 | 0.404 | 1 | 0.342 | 0.633 | 0.909 | 0.532 | 0.569 | 0.871 | 0.838 | 0.741
6 | Cc1c2c(nn1C)CSCc1cc(n(C)n1)CSc1cc(c3ccccc3c1)OCCCc1c(C(=O)O)n(C)c3c-2c(Cl)ccc13 [AZD5991] + C[C@@H]1COCCN1C2=NC(=NC(=C2)C3(CC3)[S@](=N)(=O)C)C4=C5C=CNC5=NC=C4 [AZD6738] (first compound max 1 µM, 7x7, partner max 10 µM) | 0.899 | 0.958 | 0.532 | 0.889 | 0.844 | 0.828 | 0.741 | 0.773 | 0.853 | 0.297 | 0.533 | 1 | 0.603 | 0.938 | 0.422 | 0.403 | 0.765 | 0.939 | 0.424 | 0.768
7 | CC1(C)CCC(CN2CCN(c3ccc(C(=O)NS(=O)(=O)c4ccc(NCC5CCOCC5)c([N+](=O)[O-])c4)c(Oc4cnc5[nH]ccc5c4)c3)CC2)=C(c2ccc(Cl)cc2)C1 [Venetoclax] + Cn1cnc2c(F)c(Nc3ccc(Br)cc3Cl)c(C(=O)NOCCO)cc21 [Selumetinib] (first compound max 1 µM, 7x7, partner max 3 µM) | 0.214 | 0.304 | 0.426 | 0.374 | 0.286 | 0.17 | 0.426 | 0.114 | 0.373 | 0.438 | 0.142 | 0.88 | 0.206 | 0.228 | 0.872 | 0.222 | 0.444 | 0.562 | 0.779 | 0.315
8 | COc1cccc(OCCCN)c1-c1cc(Nc2cnc(C#N)cn2)n[nH]1 [Prexasertib] + O=C(c1cc(Cc2n[nH]c(=O)c3ccccc23)ccc1F)N1CCN(C(=O)C2CC2)CC1 [Olaparib] (first compound max 1 µM, 7x7, partner max 10 µM) | 0.86 | 0.797 | 0.281 | 0.798 | 0.936 | 0.902 | 0.79 | 0.654 | 0.726 | 0.284 | 0.597 | 0.653 | 0.548 | 0.854 | 0.611 | 0.382 | 0.652 | 0.674 | 0.533 | 0.603
9 | COc1cccc(OCCCN)c1-c1cc(Nc2cnc(C#N)cn2)n[nH]1 [Prexasertib] + Cc1cc2ncnn2cc1Nc1ncc2c(n1)n(C1CCOCC1)c(=O)n2C [AZD7648] (first compound max 1 µM, 7x7, partner max 10 µM) | 0.916 | 0.95 | 0.398 | 0.879 | 0.993 | 0.902 | 0.821 | 0.597 | 0.756 | 0.333 | 0.639 | 0.629 | 0.721 | 0.948 | 0.709 | 0.504 | 0.693 | 0.765 | 0.525 | 0.533
10 | CN(C)CCCOc1ccc(-c2ccc3ncc4c(c3c2)n(C2CCOCC2)c(=O)n4C)cn1 [AZD0156] + O=C(c1cc(Cc2n[nH]c(=O)c3ccccc23)ccc1F)N1CCN(C(=O)C2CC2)CC1 [Olaparib] (first compound max 3 µM, partner max 3 µM) | 0.296 | 0.228 | 0.0677 | 0.693 | 0.408 | 0.246 | 0.432 | 0.206 | 0.227 | 0.371 | 0.323 | 0.729 | 0.234 | 0.57 | 0.327 | 0.172 | 0.292 | 0.384 | 0.383 | 0.392
11 | CN(CCO)CC[C@H](CSc1ccccc1)Nc1ccc(S(=O)(=O)NC(=O)c2ccc(N3CCC([C@@H](O)c4ccccc4-c4ccc(Cl)cc4)CC3)cc2)cc1S(=O)(=O)C(F)(F)F [AZD4320] + Cn1cnc2c(F)c(Nc3ccc(Br)cc3Cl)c(C(=O)NOCCO)cc21 [Selumetinib] (first compound max 1 µM, 7x7, partner max 3 µM) | 0.487 | 0.552 | 0.601 | 0.516 | 0.465 | 0.467 | 0.872 | 0.308 | 0.29 | 1 | 0.313 | 0.974 | 0.224 | 0.5 | 0.955 | 0.391 | 0.328 | 0.827 | 0.826 | 0.789
12 | CC(=O)c1c(C)c2cnc(Nc3ccc(N4CCNCC4)cn3)nc2n(C2CCCC2)c1=O [Palbociclib] + CC1(C)CCC(CN2CCN(c3ccc(C(=O)NS(=O)(=O)c4ccc(NCC5CCOCC5)c([N+](=O)[O-])c4)c(Oc4cnc5[nH]ccc5c4)c3)CC2)=C(c2ccc(Cl)cc2)C1 [Venetoclax] (first compound max 10 µM, 7x7, partner max 1 µM) | 0.219 | 0.279 | 0.298 | 0.484 | 0.271 | 0.507 | 0.618 | 0.217 | 0.146 | 0.177 | 0.389 | 0.976 | 0.223 | 0.49 | 0.271 | 0.136 | 0.308 | 0.351 | 0.494 | 0.261
13 | Cc1cc2ncnn2cc1Nc1ncc2c(n1)n(C1CCOCC1)c(=O)n2C [AZD7648] + O=C(c1cc(Cc2n[nH]c(=O)c3ccccc23)ccc1F)N1CCN(C(=O)C2CC2)CC1 [Olaparib] (first compound max 10 µM, 7x7, partner max 10 µM) | 0.265 | 0.143 | 0.119 | 0.533 | 0.261 | 0.244 | 0.465 | 0.167 | 0.301 | 0.129 | 0.131 | 0.346 | 0.198 | 0.313 | 0.179 | 0.141 | 0.278 | 0.421 | 0.252 | 0.242
